Experimental data: ChEMBL document CHEMBL1131161 (J Med Chem, 1998)

What was measured:
CV-1 [1] = assay: Inhibitory concentration in CV-1 cell; type: functional, cell-based, Cercopithecidae; conditions: Chlorocebus aethiops
Progesterone receptor [2] = target: T1, Progesterone receptor (Homo sapiens, UniProt P06401); assay: Effective concentration (EC50) against human progesterone receptor expressed in CV-1 cell; type: functional, cell-based
T1 sequence (P06401 whole entry): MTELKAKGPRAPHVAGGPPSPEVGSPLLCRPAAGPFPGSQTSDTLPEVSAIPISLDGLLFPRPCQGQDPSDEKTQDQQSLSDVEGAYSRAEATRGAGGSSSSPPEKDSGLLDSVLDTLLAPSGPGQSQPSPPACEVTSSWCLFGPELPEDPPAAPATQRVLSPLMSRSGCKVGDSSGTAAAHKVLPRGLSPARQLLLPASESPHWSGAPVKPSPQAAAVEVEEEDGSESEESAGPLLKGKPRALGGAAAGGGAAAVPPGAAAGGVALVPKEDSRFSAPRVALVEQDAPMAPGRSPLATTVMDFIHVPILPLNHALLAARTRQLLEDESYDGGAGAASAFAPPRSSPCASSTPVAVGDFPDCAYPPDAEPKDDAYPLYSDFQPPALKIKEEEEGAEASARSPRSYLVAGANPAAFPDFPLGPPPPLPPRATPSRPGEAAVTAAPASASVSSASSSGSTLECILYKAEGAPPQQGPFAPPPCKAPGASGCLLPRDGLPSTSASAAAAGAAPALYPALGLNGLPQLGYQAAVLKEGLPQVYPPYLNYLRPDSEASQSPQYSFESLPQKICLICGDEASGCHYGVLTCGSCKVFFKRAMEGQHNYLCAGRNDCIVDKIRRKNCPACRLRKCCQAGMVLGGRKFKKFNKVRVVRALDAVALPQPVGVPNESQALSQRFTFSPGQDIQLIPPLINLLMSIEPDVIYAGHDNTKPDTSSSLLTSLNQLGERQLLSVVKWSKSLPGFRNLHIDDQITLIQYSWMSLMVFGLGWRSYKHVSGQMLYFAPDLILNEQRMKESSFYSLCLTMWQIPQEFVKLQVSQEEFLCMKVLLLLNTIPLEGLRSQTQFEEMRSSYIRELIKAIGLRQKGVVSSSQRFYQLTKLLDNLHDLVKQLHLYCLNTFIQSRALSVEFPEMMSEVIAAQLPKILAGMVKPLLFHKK

[3] = target: T2, Mineralocorticoid receptor (Homo sapiens, UniProt P08235); assay: Inhibitory activity (IC50) against human mineralocorticoid receptor expressed in CV-1 cells; type: functional, cell-based
T2 sequence (P08235 whole entry): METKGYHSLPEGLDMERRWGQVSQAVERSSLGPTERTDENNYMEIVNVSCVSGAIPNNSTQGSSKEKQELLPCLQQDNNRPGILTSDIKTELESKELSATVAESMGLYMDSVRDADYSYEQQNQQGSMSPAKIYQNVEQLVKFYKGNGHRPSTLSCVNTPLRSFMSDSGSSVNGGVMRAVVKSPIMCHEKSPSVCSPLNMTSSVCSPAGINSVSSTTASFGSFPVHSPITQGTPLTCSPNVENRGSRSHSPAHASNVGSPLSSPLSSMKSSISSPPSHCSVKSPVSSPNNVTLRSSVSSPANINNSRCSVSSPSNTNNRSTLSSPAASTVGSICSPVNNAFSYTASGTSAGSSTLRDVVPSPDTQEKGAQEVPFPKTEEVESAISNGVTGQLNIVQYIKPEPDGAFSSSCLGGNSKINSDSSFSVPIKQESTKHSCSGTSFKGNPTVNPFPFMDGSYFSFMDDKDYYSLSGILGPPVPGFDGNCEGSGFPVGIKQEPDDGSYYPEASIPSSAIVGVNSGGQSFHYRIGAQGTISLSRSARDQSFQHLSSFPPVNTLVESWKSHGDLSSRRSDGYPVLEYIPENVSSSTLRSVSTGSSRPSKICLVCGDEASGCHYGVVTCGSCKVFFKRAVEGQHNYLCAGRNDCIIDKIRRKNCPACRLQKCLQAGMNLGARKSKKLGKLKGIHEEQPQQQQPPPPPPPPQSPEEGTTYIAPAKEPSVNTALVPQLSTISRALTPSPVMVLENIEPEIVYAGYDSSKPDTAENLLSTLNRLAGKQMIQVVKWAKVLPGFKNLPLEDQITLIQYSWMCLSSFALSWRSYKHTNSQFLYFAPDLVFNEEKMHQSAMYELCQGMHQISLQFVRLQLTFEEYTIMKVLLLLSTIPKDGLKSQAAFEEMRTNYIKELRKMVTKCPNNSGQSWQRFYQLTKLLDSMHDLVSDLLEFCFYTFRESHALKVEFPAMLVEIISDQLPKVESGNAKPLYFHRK

Progesterone receptor [4] = target: T1, Progesterone receptor; assay: Binding affinity against human progesterone receptor
Androgen receptor [5] = target: T3, Androgen receptor (Homo sapiens, UniProt P10275)
T3 sequence (P10275 whole entry): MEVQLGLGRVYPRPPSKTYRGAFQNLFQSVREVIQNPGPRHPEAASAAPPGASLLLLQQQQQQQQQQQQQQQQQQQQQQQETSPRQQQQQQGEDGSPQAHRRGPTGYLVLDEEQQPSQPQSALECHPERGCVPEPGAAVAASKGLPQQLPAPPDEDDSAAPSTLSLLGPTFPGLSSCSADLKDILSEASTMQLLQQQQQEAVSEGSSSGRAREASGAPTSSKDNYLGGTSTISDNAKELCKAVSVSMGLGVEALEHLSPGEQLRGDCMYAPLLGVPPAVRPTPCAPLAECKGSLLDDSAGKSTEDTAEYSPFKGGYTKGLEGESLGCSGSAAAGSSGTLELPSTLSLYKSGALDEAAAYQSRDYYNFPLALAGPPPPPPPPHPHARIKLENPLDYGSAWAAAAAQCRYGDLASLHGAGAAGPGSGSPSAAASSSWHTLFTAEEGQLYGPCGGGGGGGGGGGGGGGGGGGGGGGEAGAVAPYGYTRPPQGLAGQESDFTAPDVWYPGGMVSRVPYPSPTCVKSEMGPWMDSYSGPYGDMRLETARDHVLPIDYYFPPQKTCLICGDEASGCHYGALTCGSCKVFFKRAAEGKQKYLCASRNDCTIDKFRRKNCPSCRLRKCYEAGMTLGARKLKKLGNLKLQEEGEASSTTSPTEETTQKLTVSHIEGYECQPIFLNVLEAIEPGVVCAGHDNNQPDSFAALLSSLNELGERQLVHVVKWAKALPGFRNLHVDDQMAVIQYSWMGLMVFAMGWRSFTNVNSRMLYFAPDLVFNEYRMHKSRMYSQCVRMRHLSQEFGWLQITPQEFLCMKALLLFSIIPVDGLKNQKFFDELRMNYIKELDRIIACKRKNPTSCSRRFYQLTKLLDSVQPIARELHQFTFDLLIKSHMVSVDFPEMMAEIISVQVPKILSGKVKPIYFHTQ
Description: Binding affinity against human androgen receptor

Androgen receptor [6] = target: T3, Androgen receptor; remark: listed apart in the source
Description: Inhibitory activity (IC50) against human androgen receptor expressed in CV-1 cells

Glucocorticoid receptor [7] = target: T4, Glucocorticoid receptor (Homo sapiens, UniProt P04150)
T4 sequence (P04150 whole entry): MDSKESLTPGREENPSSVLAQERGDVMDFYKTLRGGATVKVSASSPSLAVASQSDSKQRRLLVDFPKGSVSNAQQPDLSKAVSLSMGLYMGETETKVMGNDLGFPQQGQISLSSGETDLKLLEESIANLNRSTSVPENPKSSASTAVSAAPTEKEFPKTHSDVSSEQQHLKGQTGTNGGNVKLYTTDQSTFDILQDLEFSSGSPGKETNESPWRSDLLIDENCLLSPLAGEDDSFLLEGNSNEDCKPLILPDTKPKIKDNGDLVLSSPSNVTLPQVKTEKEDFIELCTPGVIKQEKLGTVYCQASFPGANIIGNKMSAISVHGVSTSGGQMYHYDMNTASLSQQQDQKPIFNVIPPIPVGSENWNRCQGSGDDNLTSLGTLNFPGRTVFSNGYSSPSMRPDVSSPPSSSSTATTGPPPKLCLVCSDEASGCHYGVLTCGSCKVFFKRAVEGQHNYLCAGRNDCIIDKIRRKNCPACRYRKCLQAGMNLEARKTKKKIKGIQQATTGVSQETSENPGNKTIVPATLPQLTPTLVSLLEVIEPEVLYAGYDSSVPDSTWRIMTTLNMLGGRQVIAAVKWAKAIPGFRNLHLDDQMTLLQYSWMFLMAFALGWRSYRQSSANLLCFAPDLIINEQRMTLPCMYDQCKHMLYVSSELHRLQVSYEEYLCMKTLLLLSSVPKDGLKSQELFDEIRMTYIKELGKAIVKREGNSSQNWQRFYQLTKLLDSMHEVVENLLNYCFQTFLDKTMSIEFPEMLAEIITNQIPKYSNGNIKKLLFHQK
Description: Inhibitory activity (IC50) against human glucocorticoid receptor expressed in CV-1 cells

Estrogen receptor = Estrogen receptor (Homo sapiens, UniProt Q92731+P03372); conditions: cv-1
Description: IC50 determined against human estrogen receptor in CV-1 cells

Glucocorticoid receptor [8] = target: T4, Glucocorticoid receptor; assay: biochemical
Description: Binding affinity against human glucocorticoid receptor expressed in SF-12 cells

CV-1 [9] = assay: Inhibitory concentration was determined from full dose response curves ranging from 10 E -12 to 10 E -5M in CV-1 cell; type: functional, Cercopithecidae
CV-1 [10] = assay: inhibitory concentration was determined from full dose response curves ranging from 10 E -12 to 10 E -5M in CV-1 cell; type: functional, cell-based, Cercopithecidae; conditions: Chlorocebus aethiops

Structure (SMILES)	IC50 (CV-1 [1])	EC50 (Progesterone receptor [2])	Ki (Progesterone receptor [4])	also measured
CC1=CC(C)(C)Nc2ccc3c(c21)C(c1ccccc1)Oc1ccccc1-3 (centres undefined)	290 nM			
CC1=CC(C)(C)Nc2ccc3c(c21)/C(=C/c1ccccc1)Oc1ccccc1-3	> 10000 nM	24.4 nM	4.9 nM	IC50 [3]: 3000 nM; Ki (Androgen receptor [5]): 2660 nM; IC50 (Androgen receptor [6]): 650 nM; IC50 (Glucocorticoid receptor [7]): 737 nM; IC50 (Estrogen receptor): > 10000 nM; Ki (Glucocorticoid receptor [8]): 299 nM
CC1=CC(C)(C)Nc2ccc3c(c21)/C(=C/c1cccc(F)c1F)Oc1ccccc1-3	531 nM	26.3 nM	24.3 nM	
CC1=CC(C)(C)Nc2ccc3c(c21)/C(=C/c1ccc(F)cc1)Oc1ccccc1-3	> 10000 nM	59.5 nM	3.5 nM	
CC1=CC(C)(C)Nc2ccc3c(c21)/C(=C/c1ccc(Cl)cc1)Oc1ccccc1-3	880 nM	139 nM	60 nM	
CC1=CC(C)(C)Nc2ccc3c(c21)/C(=C/c1ccc(Br)cc1)Oc1ccccc1-3	> 10000 nM	31.5 nM	8.7 nM	
CC1=CC(C)(C)Nc2ccc3c(c21)/C(=C/c1cccc(Br)c1)Oc1ccccc1-3	> 10000 nM	37 nM	22.1 nM	
CC1=CC(C)(C)Nc2ccc3c(c21)C(Cc1ccccc1)Oc1ccccc1-3 (centres undefined)	270 nM	16.8 nM	2.1 nM	
CC1=CC(C)(C)Nc2ccc3c(c21)/C(=C/c1ccc(C)cc1)Oc1ccccc1-3	590 nM	> 10000 nM	70 nM	
COc1cccc(/C=C2\Oc3ccccc3-c3ccc4c(c32)C(C)=CC(C)(C)N4)c1	425 nM	> 10000 nM	53.3 nM	
CC1=CC(C)(C)Nc2ccc3c(c21)/C(=C/c1cccc(F)c1)Oc1ccccc1-3	> 10000 nM	7.6 nM	0.83 nM	IC50 [3]: > 10000 nM; Ki (Androgen receptor [5]): 798 nM; IC50 (Androgen receptor [6]): 795 nM; IC50 (Glucocorticoid receptor [7]): 458 nM; IC50 (Estrogen receptor): > 10000 nM; Ki (Glucocorticoid receptor [8]): 180 nM
CC1=CC(C)(C)Nc2ccc3c(c21)/C(=C/c1ccccc1Br)Oc1ccccc1-3	> 10000 nM	57.8 nM	5.5 nM	
CC1=CC(C)(C)Nc2ccc3c(c21)/C(=C/c1cccc(Cl)c1)Oc1ccccc1-3	> 10000 nM	117 nM	18.7 nM	
CC1=CC(C)(C)Nc2ccc3c(c21)/C(=C/c1cc(F)cc(F)c1)Oc1ccccc1-3	> 10000 nM	47.7 nM	12.6 nM	
CC1=CC(C)(C)Nc2ccc3c(c21)/C(=C/c1cccc(C)c1)Oc1ccccc1-3	> 10000 nM	75 nM	39.7 nM	
CC1=CC(C)(C)Nc2ccc3c(c21)/C(=C/c1ccccc1Cl)Oc1ccccc1-3	> 10000 nM	57.8 nM	1.3 nM	
CC1=CC(C)(C)Nc2ccc3c(c21)/C(=C/c1c(F)cccc1F)Oc1ccccc1-3	220 nM	32 nM	31.3 nM	
CC1=CC(C)(C)Nc2ccc3c(c21)/C(=C/c1ccc(F)cc1F)Oc1ccccc1-3	550 nM	22 nM		
CC1=CC(C)(C)Nc2ccc3c(c21)/C(=C/c1ccccc1F)Oc1ccccc1-3	> 10000 nM	29 nM	5.6 nM	
CC(=O)O[C@]1(C(C)=O)CC[C@H]2[C@@H]3C[C@H](C)C4=CC(=O)CC[C@]4(C)[C@H]3CC[C@@]21C [MEDROXYPROGESTERONE ACETATE]				IC50 (CV-1 [9]): >10000 nM; IC50 (Glucocorticoid receptor [7]): 10 nM
CC(=O)[C@H]1CC[C@H]2[C@@H]3CCC4=CC(=O)CC[C@]4(C)[C@H]3CC[C@]12C [PROGESTERONE]				IC50 (CV-1 [10]): > 10000 nM
